Results taken from ChEMBL document CHEMBL1135012, “Reductively activated disulfide prodrugs of paclitaxel” (Bioorg Med Chem Lett, 2002).

What was measured:
[1] = Compound along with dithiothreitol (DTT) was evaluated for its cytotoxicity against L2987 lung carcinoma cells; format: functional, cell-based; settings: Homo sapiens
[2] = The half-life period for the release of paclitaxel after cyclization was determined for the compound; format: ADME
[3] = Compound was evaluated for its cytotoxicity against L2987 lung carcinoma cells; format: functional, cell-based; settings: Homo sapiens
[4] = Dose required for the compound to elicit the Antitumor activity: No effective activity; format: functional
[5] = Maximum Tolerated Dose required for the compound to regress the tumors for the Antitumor activity: No effective activity; format: functional
[6] = Percentage tumor cure rate in when treated with 125 mg/Kg dose in athymic nude mice; format: functional, Mus musculus

Structure (SMILES) | IC50 [1] | T1/2 [2] | IC50 [3] | Dose [4] | Dose [5] | Tumor cure [6]
CC(=O)O[C@H]1C(=O)[C@@]2(C)[C@H]([C@H](OC(=O)c3ccccc3)[C@]3(O)C[C@H](OC(=O)[C@H](OC(=O)C(C)(C)CCSSc4ccccn4)[C@@H](NC(=O)c4ccccc4)c4ccccc4)C(C)=C1C3(C)C)[C@]1(OC(C)=O)CO[C@@H]1C[C@@H]2O | 0.2 µM | 4 min | 6.2 µM | 125 mg/kg | – | –
CC(=O)O[C@H]1C(=O)[C@@]2(C)[C@H]([C@H](OC(=O)c3ccccc3)[C@]3(O)C[C@H](OC(=O)[C@H](OC(=O)C(C)(C)CCSSCC(NC(=O)CCC(N)C(=O)O)C(=O)NCC(=O)O)[C@@H](NC(=O)c4ccccc4)c4ccccc4)C(C)=C1C3(C)C)[C@]1(OC(C)=O)CO[C@@H]1C[C@@H]2O (stereo partly drawn) | 0.4 µM | > 60 min | 10.1 µM | 150 mg/kg | – | –
CC(=O)O[C@H]1C(=O)[C@@]2(C)[C@H]([C@H](OC(=O)c3ccccc3)[C@]3(O)C[C@H](OC(=O)[C@H](O)[C@@H](NC(=O)c4ccccc4)c4ccccc4)C(C)=C1C3(C)C)[C@]1(OC(C)=O)CO[C@@H]1C[C@@H]2O [PACLITAXEL] | – | – | 0.2 µM | – | 30 mg/kg | –
CC(=O)O[C@H]1C(=O)[C@@]2(C)[C@H]([C@H](OC(=O)c3ccccc3)[C@]3(O)C[C@H](OC(=O)[C@H](OC(=O)C(C)(C)CCSSC4OC(CO)C(O)C(O)C4O)C(NC(=O)c4ccccc4)c4ccccc4)C(C)=C1C3(C)C)[C@]1(OC(C)=O)CO[C@@H]1C[C@@H]2O (stereo partly drawn) | 0.2 µM | 12 min | 5.7 µM | 85 mg/kg | – | –
CC(=O)O[C@H]1C(=O)[C@@]2(C)[C@H]([C@H](OC(=O)c3ccccc3)[C@]3(O)C[C@H](OC(=O)[C@H](OC(=O)C(C)(C)CCSSC[C@H](C)C(=O)N4CCC[C@@H]4C(=O)O)[C@@H](NC(=O)c4ccccc4)c4ccccc4)C(C)=C1C3(C)C)[C@]1(OC(C)=O)CO[C@@H]1C[C@@H]2O | 2.3 µM | 25 min | 130 µM | – | – | 60%
